In patent US8268848B2, “Cyclopropane compound” (Eisai R&D Management Co., Ltd., priority 2010, dated 2012):
pIC50, pKi: −log10 of the molar value. Read-outs that look alike come from different tables or passages of the source.

Tests used:
OX2 [1] = biological target: T1, OX2 (Homo sapiens, UniProt O43614); assay: Measurement of orexin receptor-binding ability ([125I]-OX-A, cell membranes, OX2); design: expressed in transfected cells; host or cells: CHO cells (membrane preparation); settings: membranes of recombinant CHO cells expressing OX2, 0.2 nM [125I]-OX-A; for IC50: OX2 (IC50) nM; for pIC50: read-out: OX2 (IC50)
T1 sequence (O43614 1-444): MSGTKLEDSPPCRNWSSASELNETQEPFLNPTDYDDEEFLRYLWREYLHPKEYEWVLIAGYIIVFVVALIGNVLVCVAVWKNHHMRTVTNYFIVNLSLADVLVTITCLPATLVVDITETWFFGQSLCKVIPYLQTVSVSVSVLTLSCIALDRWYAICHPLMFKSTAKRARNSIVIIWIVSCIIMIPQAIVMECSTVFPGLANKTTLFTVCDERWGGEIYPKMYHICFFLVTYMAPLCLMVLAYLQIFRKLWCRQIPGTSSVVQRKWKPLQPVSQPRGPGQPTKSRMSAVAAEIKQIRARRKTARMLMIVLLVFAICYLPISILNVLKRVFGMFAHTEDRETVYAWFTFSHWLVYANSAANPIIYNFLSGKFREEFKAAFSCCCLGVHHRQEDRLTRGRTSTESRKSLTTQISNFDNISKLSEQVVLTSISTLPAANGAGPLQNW

OX2 [2] = biological target: T1, OX2; assay: Measurement of antagonism (PLAP assay), OX2; type: cell-based; design: expressed in transfected cells; host or cells: HEK-293 cells, expression vector pBabeCLIH
Procedure: (§1) 2. Measurement of Antagonism (PLAP Assay)
(§2) The antagonistic function of the compound of the present invention to prevent the activation of OX2 and OX1 by orexin-A (OX-A), which is a natural peptide agonist, was measured using a cell-based reporter assay. […] The cells were plated at a density of 10,000 cells/well onto a non-coated 96-well plate in Dulbecco's modified Eagle medium (Sigma Cat No. D6046:10% v/v heat-inactivated fetal bovine serum was contained). The cells were cultured at 37° C. overnight, so that they could adhere to the plate. On the following day, cells were incubated with a compound of the present invention dissolved in Dulbecco's modified Eagle medium (Sigma Cat No. A8806:0.1% w/v bovine serum albumin was contained), and added to the cell plate to reach a final concentration of 0.1% dimethyl sulfoxide.
(§3) The thus obtained mixture was incubated at room temperature for 1 hour. Thereafter, human OX-A and forskolin were dissolved in the same medium as described above, which contained fetal bovine serum albumin, and the medium was then added to the cells, resulting in a final concentration of 300 nM forskolin. Subsequently, the cells were cultured at 37° C. for approximately 18 to 24 hours.

OX1 [3] = biological target: T2, OX1 (Homo sapiens, UniProt O43613); assay: Measurement of orexin receptor-binding ability ([125I]-OX-A, cell membranes, OX1); design: expressed in transfected cells; host or cells: CHO cells (membrane preparation)
T2 sequence (O43613 1-425): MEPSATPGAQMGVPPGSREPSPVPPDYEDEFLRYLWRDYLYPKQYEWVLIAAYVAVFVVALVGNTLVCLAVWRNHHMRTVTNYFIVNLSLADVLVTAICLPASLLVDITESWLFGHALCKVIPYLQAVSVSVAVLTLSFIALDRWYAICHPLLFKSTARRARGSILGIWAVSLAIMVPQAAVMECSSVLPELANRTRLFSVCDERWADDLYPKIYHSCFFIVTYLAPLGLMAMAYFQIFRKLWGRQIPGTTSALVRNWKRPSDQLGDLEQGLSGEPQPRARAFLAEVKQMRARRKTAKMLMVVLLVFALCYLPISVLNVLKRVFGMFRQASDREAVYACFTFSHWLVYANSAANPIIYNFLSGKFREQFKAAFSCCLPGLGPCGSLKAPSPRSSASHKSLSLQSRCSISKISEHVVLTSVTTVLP

mice (C57BL/6NCrlCrLj) = assay: Sleep experiment (EEG/EMG) in mice; type: in vivo
Procedure: As a method for measuring the influence of the present compound on sleep time, electroencephalogram (EEG) and electromyogram (EMG) measurements were carried out in mice (C57BL/6NCrlCrLj).
In order to measure brain waves and muscle signals, EEG and EMG electrode implantation was performed on individual mice, and the mice were then housed in a state in which they could freely move and habituate in individual recording cages for 1 week or longer. Thereafter, amplified EEG and EMG signals were digitally recorded.
Mice received either oral administration of vehicle or test compound in vehicle, after which sleep/wake behavior of mice was recorded for 3 hours.
For sleep analysis, automatic analysis software from Kissei Comtec Co., Ltd. was used to analyze EEG frequency and EMG activity signals in detail and to determine sleep and wake states. Thereafter, accumulated sleeping time over 3 hours was calculated.
The effect of the compound to increase sleep time was evaluated as the difference between sleeping time on the vehicle-administration day and the sleep time on the subsequent drug-administration day.
The minimum effective dose (MED; mg/kg) was obtained from accumulated sleep time of mice with three hours after the administration.

OX1 [4] = biological target: T2, OX1; assay: Measurement of antagonism (PLAP assay), OX1; type: cell-based; design: expressed in transfected cells; host or cells: HEK-293 cells, expression vector pBabeCLIH
Procedure: as §1, §2, §3

[5] = HEK-293 cells expressing human OX2, 1 nM human OX-A, IC50 converted by Cheng-Prusoff equation, read-out: OX2 (Ki)
[6] = mice, oral administration, difference to vehicle day, 3 hours
[7] = HEK-293 cells expressing human OX1, 1 nM human OX-A, IC50 converted by Cheng-Prusoff equation, read-out: OX1 (Ki)
[8] = membranes of recombinant CHO cells expressing OX1, 0.2 nM [125I]-OX-A, read-out: OX1 (IC50)

| SMILES | IC50 (OX2 [1]) [nM] | pKi (OX2 [2]; [5]) | pIC50 (OX1 [3]) | Sleep extended time 10 mg/kg (min/3 hrs) (mice (C57BL/6NCrlCrLj); [6]) | pKi (OX1 [4]; [7]) | pKi (OX2 [2]) | pIC50 (OX1 [3]; [8]) | pIC50 (OX2 [1]) | Sleep extended time 10 mg/kg (min/3 hrs) (mice (C57BL/6NCrlCrLj); po, 3 h) | minimum effective dose (MED) (mice (C57BL/6NCrlCrLj); mice, oral, doses 0.3 to 100 mg/kg, accumulated sleep time within three hours after administration) [mg/kg] | pKi (OX1 [4]) |
| --- | --- | --- | --- | --- | --- | --- | --- | --- | --- | --- | --- |
| Cc1ncc(OC[C@@]2(c3ccc(Cl)cc3)C[C@H]2C(=O)Nc2ccc(F)cn2)c(C)n1 [Example 161] | 12 | 8.54 | 7.30 | 10.0 | 7.49 |  |  |  |  |  |  |
| Cc1ncc(OC[C@@]2(c3ccccc3)C[C@H]2C(=O)Nc2ccccn2)c(C)n1 [Example 65] | 81 |  |  |  | < 6.18 | 7.22 | 5.99 |  |  |  |  |
| Cc1ncc(OC[C@@]2(c3cc(F)cc(F)c3)C[C@H]2C(=O)Nc2cc(C)c(F)cn2)c(C)n1 [Example 129, (1R,2S)-2-(3,5-difluorophenyl)-2-{[(2,4-dimethylpyrimidin-5-yl)oxy]methyl}-N-(5-fluoro-4-methylpyridin-2-yl)cyclopropanecarboxamide] |  | 10.22 |  |  | 9.01 |  | 9.00 | 8.82 | 30.0 |  |  |
| Cc1ncc(OC[C@@]2(c3cccc(F)c3)C[C@H]2C(=O)Nc2cc(C)c(F)cn2)c(C)n1 [Example 82, (1R,2S)-2-{[(2,4-dimethylpyrimidin-5-yl)oxy]methyl}-N-(5-fluoro-4-methylpyridin-2-yl)-2-(3-fluorophenyl)cyclopropanecarboxamide] | 3.7 |  | 8.62 | 33.5 | 9.02 | 10.07 |  |  |  |  |  |
| COc1cncc(NC(=O)[C@@H]2C[C@@]2(COc2cnc(C)nc2C)c2ccccc2)c1 [Example 61] |  | 7.59 |  |  | < 6.18 |  | 6.06 | 7.80 |  |  |  |
| Cc1ncc(OC[C@@]2(c3cccc(F)c3)C[C@H]2C(=O)Nc2ccc(F)cn2)c(C)n1 [Example 95, (1R,2S)-2-{[(2,4-dimethylpyrimidin-5-yl)oxy]methyl}-2-(3-fluorophenyl)-N-(5-fluoropyridin-2-yl)cyclopropanecarboxamide] |  |  | 7.87 | 39.8 |  |  |  |  |  | ≤ 1 | 8.00 |
| Cc1ncc(OC[C@@]2(c3ccccc3F)C[C@H]2C(=O)Nc2ccc(F)cn2)c(C)n1 [Example 263] | 17 |  | 7.09 | 27.3 |  | 8.07 |  |  |  |  | 6.71 |
| Cc1ncc(OC[C@@]2(c3ccccc3)C[C@H]2C(=O)Nc2cccnc2)c(C)n1 [Example 66] |  | 7.47 |  |  | < 6.18 |  | 6.40 | 7.30 |  |  |  |
| Cc1ncc(OC[C@@]2(c3ccccc3)C[C@H]2C(=O)Nc2ccncc2)c(C)n1 [Example 67] |  |  |  |  |  | 7.24 |  |  |  |  | < 6.18 |
| Cc1ncc(OC[C@@]2(c3ccc(F)cc3)C[C@H]2C(=O)Nc2ccc(F)cn2)c(C)n1 [Example 100, (1R,2S)-2-{[(2,4-dimethylpyrimidin-5-yl)oxy]methyl}-2-(4-fluorophenyl)-N-(5-fluoropyridin-2-yl)cyclopropanecarboxamide] | 7.6 | 8.03 | 7.40 | 23.8 | 6.83 |  |  |  |  |  |  |
| CCc1nc(C)ncc1OC[C@@]1(c2ccccc2)C[C@H]1C(=O)Nc1ccc(C#N)cn1 [Example 120, (1R,2S)-N-(5-cyanopyridin-2-yl)-2-{[(4-ethyl-2-methylpyrimidin-5-yl)oxy]methyl}-2-phenylcyclopropanecarboxamide] |  | 8.24 |  |  | 6.56 |  | 6.91 | 8.15 | 11.5 |  |  |
| Cc1ncc(OC[C@@]2(c3ccccc3)C[C@H]2C(=O)Nc2ccc(F)c(C#N)c2)c(C)n1 [Example 26, (1R,2S)-N-(3-cyano-4-fluorophenyl)-2-{[(2,4-dimethylpyrimidin-5-yl)oxy]methyl}-2-phenylcyclopropanecarboxamide] |  | 9.40 |  |  | 7.57 |  | 7.70 | 8.43 |  |  |  |
| CCc1nc(C)ncc1OC[C@@]1(c2ccccc2)C[C@H]1C(=O)Nc1ccc(Cl)cn1 [Example 121, (1R,2S)-N-(5-chloropyridin-2-yl)-2-{[(4-ethyl-2-methylpyrimidin-5-yl)oxy]methyl}-2-phenylcyclopropanecarboxamide] |  | 9.52 |  |  | 7.59 |  | 8.00 | 8.51 | 26.7 |  |  |
| Cc1ncc(OC[C@@]2(c3ccccc3)C[C@H]2C(=O)Nc2cc(C)c(Cl)cn2)c(C)n1 [Example 45, (1R,2S)-N-(5-chloro-4-methylpyridin-2-yl)-2-{[(2,4-dimethylpyrimidin-5-yl)oxy]methyl}-2-phenylcyclopropanecarboxamide] |  | 9.35 |  |  | 7.72 |  | 7.86 | 8.21 | 15.2 |  |  |
| Cc1ncc(OC[C@@]2(c3ccccc3)C[C@H]2C(=O)Nc2ccc(Cl)cn2)c(C)n1 [Example 16, (1R,2S)-N-(5-chloropyridin-2-yl)-2-{[(2,4-dimethylpyrimidin-5-yl)oxy]methyl}-2-phenylcyclopropanecarboxamide] |  | 8.27 |  |  | 7.10 |  | 7.40 | 8.72 | 19.0 |  |  |
| Cc1ncc(OC[C@@]2(c3ccc(F)c(F)c3)C[C@H]2C(=O)Nc2cc(C)c(F)cn2)c(C)n1 [Example 164, (1R,2S)-2-(3,4-difluorophenyl)-2-{[(2,4-dimethylpyrimidin-5-yl)oxy]methyl}-N-(5-fluoro-4-methylpyridin-2-yl)cyclopropanecarboxamide] |  | 10.06 |  |  | 9.03 |  | 8.52 | 8.22 | 48.4 |  |  |
| Cc1ncc(OC[C@@]2(c3ccccc3)C[C@H]2C(=O)Nc2ccccc2)c(C)n1 [Example 64] |  | 8.20 |  |  | 6.88 |  | 7.13 | 7.82 |  |  |  |
| COCc1nc(C)ncc1OC[C@@]1(c2ccccc2)C[C@H]1C(=O)Nc1ccc(Cl)cn1 [Example 139, (1R,2S)-N-(5-chloropyridin-2-yl)-2-{[(4-(methoxymethyl)-2-methylpyrimidin-5-yl)oxy]methyl}-2-phenylcyclopropanecarboxamide] |  | 8.77 |  |  | 6.95 |  | 7.66 | 8.48 |  |  |  |
